Test results published in patent US20230265151A1, “GIP/GLP1 CO-AGONIST COMPOUNDS” (priority 2020, published 2023).
Where two headings read alike, the source gives them in different places.

Key:
[1] = biological target: T1, hGCGR (Homo sapiens, UniProt P47871); experiment: Functional cAMP formation (HTRF) in HEK-293 clonal cells expressing hGCGR, 0.1% bovine casein, without or with 1.0% human serum albumin; type: cell-based; conditions: geometric mean
T1 construct: expressed in transfected cells
T1 sequence (P47871 26-477): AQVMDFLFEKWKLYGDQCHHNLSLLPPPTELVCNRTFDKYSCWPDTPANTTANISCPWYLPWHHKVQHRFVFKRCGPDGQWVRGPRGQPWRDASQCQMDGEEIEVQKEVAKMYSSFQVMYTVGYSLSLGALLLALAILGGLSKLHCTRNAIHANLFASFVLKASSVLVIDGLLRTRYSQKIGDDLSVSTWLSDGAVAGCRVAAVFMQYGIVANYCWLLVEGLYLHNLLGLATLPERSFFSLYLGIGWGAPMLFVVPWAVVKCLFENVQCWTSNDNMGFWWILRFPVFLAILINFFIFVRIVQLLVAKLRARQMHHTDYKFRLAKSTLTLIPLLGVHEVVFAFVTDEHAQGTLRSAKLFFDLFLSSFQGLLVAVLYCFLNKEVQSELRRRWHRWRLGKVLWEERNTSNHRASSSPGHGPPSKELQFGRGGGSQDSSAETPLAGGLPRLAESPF
How it was run: (§1)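 Readings of the HTRF 665/620 nm ratio, which falls as cAMP rises, were converted to nM cAMP using a standard curve after 30 min peptide exposure at 37° C.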

[2] = biological target: T2, hGIPR (Homo sapiens, UniProt P48546); experiment: Functional cAMP formation (HTRF) in HEK-293 clonal cells expressing hGIPR, 0.1% bovine casein, without or with 1.0% human serum albumin; type: cell-based; conditions: for EC50: geometric mean
T2 construct: expressed in transfected cells
T2 sequence (P48546 22-466): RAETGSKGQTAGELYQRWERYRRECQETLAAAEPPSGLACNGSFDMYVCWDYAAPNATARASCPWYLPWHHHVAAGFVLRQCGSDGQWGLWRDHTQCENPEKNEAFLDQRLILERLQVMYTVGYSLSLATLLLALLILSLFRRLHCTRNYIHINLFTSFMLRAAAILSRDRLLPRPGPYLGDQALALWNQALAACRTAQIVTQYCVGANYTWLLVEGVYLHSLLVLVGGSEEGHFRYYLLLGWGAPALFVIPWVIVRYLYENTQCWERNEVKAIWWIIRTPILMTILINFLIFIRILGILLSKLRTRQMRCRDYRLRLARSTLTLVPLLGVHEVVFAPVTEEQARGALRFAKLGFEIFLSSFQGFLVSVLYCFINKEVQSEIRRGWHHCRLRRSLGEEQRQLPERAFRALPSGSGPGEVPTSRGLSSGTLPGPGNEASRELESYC
How it was run: as §1

[3] = cAMP, incubated at 37° C., 0.1% bovine casein (no human serum albumin), read-out: hGCGR EC50, nM (SEM, n)
[4] = cAMP, incubated at 37° C., 0.1% bovine casein (no human serum albumin), read-out: hGIPR EC50, nM (SEM, n)
[5] = HEK293, percent of maximal response to GIP(1-42)NH2, 37° C., 0.1% bovine casein, arithmetic mean, read-out: hGIPR Emax, % ± SEM

## CC[C@H](C)[C@H](NC(=O)[C@H](CC(C)C)NC(=O)[C@](C)(Cc1ccc(O)cc1)NC(=O)[C@@H](CCC(=O)O)NC(=O)[C@@H](NC(=O)[C@H](Cc1ccccc1)NC(=O)[C@H](CCC(=O)O)NC(=O)C(C)(C)NC(=O)[C@H](CCC(N)=O)NC(=O)[C@H](C)NC(=O)[C@H](CCCCNC(=O)COCCOCCNC(=O)COCCOCCNC(=O)CC[C@H](NC(=O)CCCc1ccc(C(C)(C)C)cc1)C(=O)O)NC(=O)[C@H](CCCN)NC(=O)[C@H](CC(=O)O)NC(=O)[C@H](CC(C)C)NC(=O)[C@](C)(CC(C)C)NC(=O)[C@@H](NC(=O)[C@H](CO)NC(=O)[C@H](Cc1ccncc1)NC(=O)[C@H](CC(=O)O)NC(=O)[C@H](CO)NC(=O)[C@@H](NC(=O)[C@](C)(Cc1ccccc1F)NC(=O)[C@@H](NC(=O)CNC(=O)[C@H](CCC(=O)O)NC(=O)C(C)(C)NC(=O)[C@@H](N)Cc1ccc(O)cc1)[C@@H](C)O)[C@@H](C)O)[C@@H](C)CC)[C@@H](C)CC)C(=O)N[C@@H](CCC(=O)O)C(=O)NCC(=O)N[C@@H](CCCCNC(=O)COCCOCCNC(=O)COCCOCCNC(=O)CC[C@H](NC(=O)CCCc1ccc(C(C)(C)C)cc1)C(=O)O)C(=O)N1CCC[C@H]1C(=O)N[C@@H](CO)C(=O)N[C@@H](CO)C(=O)NCC(=O)N[C@@H](C)C(=O)N1CCC[C@H]1C(=O)N1CCC[C@H]1C(=O)N1CCC[C@H]1C(=O)N[C@@H](CO)C(N)=O [Example 134]
[1]; [3]
  EC50: > 9950 nM
[2]; [4]
  EC50: 0.0238 nM

## CC[C@H](C)[C@H](NC(=O)[C@H](CC(C)C)NC(=O)[C@](C)(Cc1ccc(O)cc1)NC(=O)[C@H](CCCCNC(=O)[C@@H](N)CCCCNC(=O)[C@@H](N)CCCCNC(=O)CC[C@H](NC(=O)CCCCCCCCCCCCC(=O)O)C(=O)O)NC(=O)[C@@H](NC(=O)[C@H](Cc1ccccc1)NC(=O)[C@H](CCC(=O)O)NC(=O)C(C)(C)NC(=O)[C@H](CCC(N)=O)NC(=O)[C@H](C)NC(=O)[C@H](CCCCNC(=O)[C@@H](N)CCCCNC(=O)[C@@H](N)CCCCNC(=O)CC[C@H](NC(=O)CCCCCCCCCCCCC(=O)O)C(=O)O)NC(=O)[C@H](CCCN)NC(=O)[C@H](CC(=O)O)NC(=O)[C@H](CC(C)C)NC(=O)[C@](C)(CC(C)C)NC(=O)[C@@H](NC(=O)[C@H](CO)NC(=O)[C@H](Cc1ccncc1)NC(=O)[C@H](CC(=O)O)NC(=O)[C@H](CO)NC(=O)[C@@H](NC(=O)[C@](C)(Cc1ccccc1F)NC(=O)[C@@H](NC(=O)CNC(=O)[C@H](CCC(=O)O)NC(=O)C(C)(C)NC(=O)[C@@H](N)Cc1ccc(O)cc1)[C@@H](C)O)[C@@H](C)O)[C@@H](C)CC)[C@@H](C)CC)C(=O)N[C@@H](CCC(=O)O)C(=O)NCC(=O)NCC(=O)N1CCC[C@H]1C(=O)N[C@@H](CO)C(=O)N[C@@H](CO)C(=O)NCC(=O)N[C@@H](C)C(=O)N1CCC[C@H]1C(=O)N1CCC[C@H]1C(=O)N1CCC[C@H]1C(=O)N[C@@H](CO)C(N)=O [Example 162]
[1]; hGCGR EC50, nM (SEM, n), cAMP, incubated at 37° C., 0.1% bovine casein (no human serum albumin)
  EC50: > 9950 nM
[2]; HEK293, read-out: hGIPR Emax, % ± SEM, percent of maximal response to GIP(1-42)NH2, 37° C., 0.1% bovine casein, arithmetic mean
  Emax: 89.7%
[2]; hGIPR EC50, nM (SEM, n), cAMP, incubated at 37° C., 0.1% bovine casein (no human serum albumin)
  EC50: 0.022 nM

## CC[C@H](C)[C@H](NC(=O)[C@H](CC(C)C)NC(=O)[C@](C)(Cc1ccc(O)cc1)NC(=O)[C@@H](CCC(=O)O)NC(=O)[C@@H](NC(=O)[C@H](Cc1ccccc1)NC(=O)[C@H](CCC(=O)O)NC(=O)C(C)(C)NC(=O)[C@H](CCC(N)=O)NC(=O)[C@H](C)NC(=O)[C@H](CCCCNC(=O)COCCOCCNC(=O)COCCOCCNC(=O)CC[C@H](NC(=O)CCCCCCCCCOc1ccc(C(=O)O)cc1)C(=O)O)NC(=O)[C@H](CCCN)NC(=O)[C@H](CC(=O)O)NC(=O)[C@H](CC(C)C)NC(=O)[C@](C)(CC(C)C)NC(=O)[C@@H](NC(=O)[C@H](CO)NC(=O)[C@H](Cc1ccc2ccccc2c1)NC(=O)[C@H](CC(=O)O)NC(=O)[C@H](CO)NC(=O)[C@@H](NC(=O)[C@](C)(Cc1ccccc1F)NC(=O)[C@@H](NC(=O)CNC(=O)[C@H](CCC(=O)O)NC(=O)C(C)(C)NC(=O)[C@@H](N)Cc1ccc(O)cc1)[C@@H](C)O)[C@@H](C)O)[C@@H](C)CC)[C@@H](C)CC)C(=O)N[C@@H](CCCCNC(=O)COCCOCCNC(=O)COCCOCCNC(=O)CC[C@H](NC(=O)CCCCCCCCCOc1ccc(C(=O)O)cc1)C(=O)O)C(=O)NCC(=O)NCC(=O)N1CCC[C@H]1C(=O)N[C@@H](CO)C(=O)N[C@@H](CO)C(=O)NCC(=O)N[C@@H](C)C(=O)N1CCC[C@H]1C(=O)N1CCC[C@H]1C(=O)N1CCC[C@H]1C(=O)N[C@@H](CO)C(N)=O [Example 282]
[1]; hGCGR EC50, nM (SEM, n), 0.1% bovine casein and 1.0% human serum albumin, 37° C.
  EC50: > 9950 nM
[1]; hGCGR EC50, nM (SEM, n), cAMP, 37° C., 0.1% bovine casein (no human serum albumin)
  EC50: > 9950 nM
[2]; HEK293, read-out: hGIPR Emax, % ± SEM, 0.1% bovine casein and 1.0% human serum albumin, 37° C., percent of maximal response to GIP(1-42)NH2
  Emax: 84.4%
[2]; hGIPR EC50, nM (SEM, n), 0.1% bovine casein and 1.0% human serum albumin, 37° C.
  EC50: 1.44 nM
[2]; hGIPR EC50, nM (SEM, n), cAMP, 37° C., 0.1% bovine casein (no human serum albumin)
  EC50: 0.0193 nM

## CC[C@H](C)[C@H](NC(=O)[C@H](CC(C)C)NC(=O)[C@](C)(Cc1ccc(O)cc1)NC(=O)[C@@H](CCC(=O)O)NC(=O)[C@@H](NC(=O)[C@H](Cc1ccccc1)NC(=O)[C@H](CCC(=O)O)NC(=O)C(C)(C)NC(=O)[C@H](CCC(N)=O)NC(=O)[C@H](C)NC(=O)[C@H](CCCCNC(=O)COCCOCCNC(=O)COCCOCCNC(=O)CC[C@H](NC(=O)CCCCCCCCCCCCC(=O)O)C(=O)O)NC(=O)[C@H](CCCN)NC(=O)[C@H](CC(=O)O)NC(=O)[C@H](CC(C)C)NC(=O)[C@](C)(CC(C)C)NC(=O)[C@@H](NC(=O)[C@H](CO)NC(=O)[C@H](Cc1ccsc1)NC(=O)[C@H](CC(=O)O)NC(=O)[C@H](CO)NC(=O)[C@@H](NC(=O)[C@](C)(Cc1ccccc1F)NC(=O)[C@@H](NC(=O)CNC(=O)[C@H](CCC(=O)O)NC(=O)C(C)(C)NC(=O)[C@@H](N)Cc1ccc(O)cc1)[C@@H](C)O)[C@@H](C)O)[C@@H](C)CC)[C@@H](C)CC)C(=O)N[C@@H](CCC(=O)O)C(=O)NCC(=O)NCC(=O)N[C@@H](CCCCNC(=O)COCCOCCNC(=O)COCCOCCNC(=O)CC[C@H](NC(=O)CCCCCCCCCCCCC(=O)O)C(=O)O)C(=O)N[C@@H](CO)C(=O)N[C@@H](CO)C(=O)NCC(=O)N[C@@H](C)C(=O)N1CCC[C@H]1C(=O)N1CCC[C@H]1C(=O)N1CCC[C@H]1C(=O)N[C@@H](CO)C(N)=O [Example 146]
[1]; [3]
  EC50: > 9950 nM
[2]; [5]
  Emax: 76.5%
[2]; [4]
  EC50: 0.0198 nM

## CCCCCCCCCCCC(=O)N[C@@H](CCC(=O)NCCOCCOCC(=O)NCCOCCOCC(=O)NCCCC[C@H](NC(=O)[C@H](CCCN)NC(=O)[C@H](CC(=O)O)NC(=O)[C@H](CC(C)C)NC(=O)[C@](C)(CC(C)C)NC(=O)[C@@H](NC(=O)[C@H](CO)NC(=O)[C@H](CCCCNC(=O)COCCOCCNC(=O)COCCOCCNC(=O)CC[C@H](NC(=O)CCCCCCCCCCC)C(=O)O)NC(=O)[C@H](CC(=O)O)NC(=O)[C@H](CO)NC(=O)[C@@H](NC(=O)[C@](C)(Cc1ccccc1F)NC(=O)[C@@H](NC(=O)CNC(=O)[C@H](CCC(=O)O)NC(=O)C(C)(C)NC(=O)[C@@H](N)Cc1ccc(O)cc1)[C@@H](C)O)[C@@H](C)O)[C@@H](C)CC)C(=O)N[C@@H](C)C(=O)N[C@@H](CCC(N)=O)C(=O)NC(C)(C)C(=O)N[C@@H](CCC(=O)O)C(=O)N[C@@H](Cc1ccccc1)C(=O)N[C@H](C(=O)N[C@H](CCC(=O)O)C(=O)N[C@@](C)(Cc1ccc(O)cc1)C(=O)N[C@@H](CC(C)C)C(=O)N[C@H](C(=O)N[C@@H](CCC(=O)O)C(=O)NCC(=O)NCC(=O)N1CCC[C@H]1C(=O)N[C@@H](CO)C(=O)N[C@@H](CO)C(=O)NCC(=O)N[C@@H](C)C(=O)N1CCC[C@H]1C(=O)N1CCC[C@H]1C(=O)N1CCC[C@H]1C(=O)N[C@@H](CO)C(N)=O)[C@@H](C)CC)[C@@H](C)CC)C(=O)O [Example 136]
[1]; [3]
  EC50: > 9950 nM
[2]; [5]
  Emax: 97.4 ± 4.23%
